In this experiment the test system is plasma. Description: Measurement of activated partial thromboplastin time (APTT). The conditions noted are these: test substance concentration of 100 μg/ml, rat plasma. The protocol: Hundred μl of plasma obtained by centrifuging at 1000×g for 10 minutes blood sampled from descending aorta of a rat with 1/10 volume of 3.2% […] and 100 μl of a different concentration of N-desulfated-N-reacetylated heparin or each 6-O-sulfated-N-acetylheparosan (Fraction I derived from Reaction-A, Fraction II derived from Reaction-A, and Reaction-B Product) were placed in a cup for measurement and the whole was kept at 37° C. for 1 minute. Thereafter, 100 μl of Actin (trade name: Mitsubishi Pharma Corporation) kept at 37° C. beforehand was added thereto, followed by maintenance at the temperature for 2 minutes. Then, 100 μl of a 0.02M calcium chloride solution kept at 37° C. was added and a time required for the occurrence of coagulation from this point was measured by means of an automatic blood coagulation-measuring apparatus (KC-10A; manufactured by Amelung).

A value given as a limit tells only on which side of the number the result lay.

Take “N-desulfated-N-reacetylated heparin [reference compound]”: the APTT was ≥ 80 s.

The values above are taken from patent publication US20050233453A1, “6-O-sulfated N-acetylheparosan and hematopoietic stem cell growth auxiliary agent” (SEIKAGAKU CORPORATION, priority 2004, published 2005).
